Drawing on US10633394B2, “Heterocyclic derivatives and use thereof” (C & C RESEARCH LABORATORIES, priority 2014, dated 2020), this text covers IC50 for three molecules.

Holding throughout (assay type): cell-based
The target of assay [1] is T1, STAT3 (Homo sapiens, UniProt P40763).
T1 construct: plasmid pSTAT3-TA-luc), which contains a stably operating STAT3 promoter; endogenous in cells
Kind of assay: STAT3 reporter gene (luciferase) assay in LNCaP stable cell line stimulated with IL-6. Particulars: LNCaP stable cell line (pSTAT3-TA-luc), IL-6 10 ng/mL, 24 hours. A digest of the protocol:
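LNCaP cells stably carrying pSTAT3-TA-luc, in RPMI1640 with 3% DCC-FBS, cultured 24 hours, then treated with compound at various concentrations plus IL-6 (final 10 ng/mL) for 24 hours at 37° C. Luciferase measured in lysates; parallel plate read for viability by CellTiter-Glo.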
(In general: A reporter such as luciferase makes a cellular process visible.)

Assay [2] concerns the target T2, STAT1 (Homo sapiens, UniProt P42224).
T2 construct: pGL4-STAT1-TA-luc), which contains a stably operating STAT1 promoter; endogenous in cells
T2 sequence (P42224 1-750): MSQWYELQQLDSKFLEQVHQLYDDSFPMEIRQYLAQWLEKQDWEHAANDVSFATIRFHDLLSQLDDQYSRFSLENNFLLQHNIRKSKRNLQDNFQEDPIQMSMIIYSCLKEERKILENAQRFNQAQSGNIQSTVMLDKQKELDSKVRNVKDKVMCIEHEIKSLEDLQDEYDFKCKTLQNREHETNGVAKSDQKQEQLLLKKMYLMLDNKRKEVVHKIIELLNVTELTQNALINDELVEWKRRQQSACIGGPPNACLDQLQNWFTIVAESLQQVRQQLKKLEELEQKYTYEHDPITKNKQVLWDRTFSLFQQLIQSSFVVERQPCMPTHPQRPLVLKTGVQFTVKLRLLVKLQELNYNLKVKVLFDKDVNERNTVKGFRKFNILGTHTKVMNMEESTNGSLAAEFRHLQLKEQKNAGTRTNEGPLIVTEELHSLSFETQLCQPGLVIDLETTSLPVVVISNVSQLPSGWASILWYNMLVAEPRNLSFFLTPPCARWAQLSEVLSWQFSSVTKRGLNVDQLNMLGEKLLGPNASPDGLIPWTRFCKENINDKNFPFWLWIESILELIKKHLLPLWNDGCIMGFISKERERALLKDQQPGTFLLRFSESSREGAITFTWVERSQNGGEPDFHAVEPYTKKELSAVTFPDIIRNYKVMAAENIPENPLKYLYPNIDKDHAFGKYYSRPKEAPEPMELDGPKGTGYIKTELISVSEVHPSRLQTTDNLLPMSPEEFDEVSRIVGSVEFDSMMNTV
Kind of assay: STAT1 reporter gene (luciferase) assay in U2OS stable cell line stimulated with IFN-γ. Particulars: U2OS stable cell line (pGL4-STAT1-TA-luc), IFN-γ 50 ng/mL, 8 hours; read-out: IC50 (μM) pSTAT1. The protocol:
1-2) Experiment on the Inhibition of STAT1 Activity
A human osteosarcoma cell line (U2OS stable cell line; pGL4-STAT1-TA-luc), which contains a stably operating STAT1 promoter, was cultured in McCoy 5′A medium (Cat No. 16600, Life Technologies) containing 10% FBS (Cat No. SH30396, Thermo Scientific) and 1000 μg/mL G418 solution (Cat No. 04 727 894 001, Roche). The reporter gene assay using U2OS stable cell line was performed in McCoy 5′A medium containing 10% FBS without G-418 solution. U2OS stable cells were plated in two (2) white 96-well plates with 25,000 cells/50 μL in each well. […] The plates were observed under microscope and drug precipitation and particular findings were investigated and recorded.
The luciferase assay and the cell viability assay were performed respectively with one of two plates. […] After shaking the plate for 30 minutes, luciferase activities of each well were measured in a PHERAstar™ microplate reader (BMG LABTECH) using a luciferase assay system (Cat No. E1501, Promega). For the cell viability assay, the 96-well plate was placed at room temperature for 30 minutes, added with 20 μL/well of CellTiter-Glo solution (Cat No. G7573, Promega), and shaken for 10 minutes in order to measure cytotoxicity caused by the compounds listed in Examples with a PHERAstar™ microplate reader (BMG LABTECH). […]

In assay [3] the test system is NCI-N87. Kind of assay: Cell growth inhibition assay (CellTiter-Glo), stomach cancer cell line NCI-N87. Conditions: NCI-N87 cells, 96 hours. A digest of the protocol:
(§1)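 Cells seeded at 5,000/well (NCI-N87) or 10,000/well (MDA-MB-468) and exposed to serially diluted compounds for 96 h at 37 °C, NCI-N87 under 5% CO2 and MDA-MB-468 in air. Viability read by CellTiter-Glo luminescence; cell-free wells served as negative control and 0.1% DMSO wells as positive control.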
A general note: Cellular ATP, detected with luciferase, serves as a proxy for viable cell number.

Assay [4] has as its system MDA-MB-468. Kind of assay: Cell growth inhibition assay (CellTiter-Glo), breast cancer cell line MDA-MB-468. Particulars: MDA-MB-468 cells, 96 hours. In short, it runs like this: as §1

T1 sequence (P40763 whole entry): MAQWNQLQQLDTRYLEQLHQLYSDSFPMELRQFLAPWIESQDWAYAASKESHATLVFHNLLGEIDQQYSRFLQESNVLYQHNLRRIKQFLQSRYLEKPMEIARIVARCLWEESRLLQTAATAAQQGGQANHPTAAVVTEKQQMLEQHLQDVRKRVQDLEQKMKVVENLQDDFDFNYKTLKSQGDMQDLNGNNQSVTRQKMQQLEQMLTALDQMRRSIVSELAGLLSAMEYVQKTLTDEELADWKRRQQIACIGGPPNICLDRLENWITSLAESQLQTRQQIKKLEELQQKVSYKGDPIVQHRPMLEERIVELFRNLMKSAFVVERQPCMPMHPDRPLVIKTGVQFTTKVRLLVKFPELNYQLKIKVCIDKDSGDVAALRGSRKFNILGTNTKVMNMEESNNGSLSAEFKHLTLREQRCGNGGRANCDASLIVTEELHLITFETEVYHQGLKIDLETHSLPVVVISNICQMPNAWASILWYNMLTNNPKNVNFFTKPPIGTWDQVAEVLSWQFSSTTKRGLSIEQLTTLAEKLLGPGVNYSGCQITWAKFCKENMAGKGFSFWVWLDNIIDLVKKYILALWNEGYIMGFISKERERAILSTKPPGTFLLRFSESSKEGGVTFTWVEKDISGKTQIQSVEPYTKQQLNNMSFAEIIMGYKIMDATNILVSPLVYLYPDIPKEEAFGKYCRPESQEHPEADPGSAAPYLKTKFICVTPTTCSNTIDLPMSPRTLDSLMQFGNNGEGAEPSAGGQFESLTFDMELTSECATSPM

In general, IC50 refers to the concentration needed to halve the response being measured. For “N-(2-chloro-6-(5-chloro-2-methylphenoxy)pyridin-4-yl)-4-(methylsulfonyl)-3,4-dihydro-2H-thieno[3,2-g]chromene-7-carboxamide [Example 37]”, the IC50 in assay [1] is 0.0062 µM; in assay [2] it was above 50 µM; in assay [3], 0.0095 µM; in assay [4], 0.0047 µM.

In the case of “tert-butyl 7-((2-chloro-6-(4-chlorophenoxy)pyridin-4-yl)carbamoyl)-1-(methylsulfonyl)-2,3-dihydrothieno[2,3-g]quinoxaline-4(1H)-carboxylate [Example 5]”, the results for the IC50 in assay [1], in assay [2] and in assay [3] were 0.76 µM, above 50 µM and 0.72 µM, respectively.

Regarding `Cc1cccc(Oc2cc(NC(=O)c3cc4cc5c(cc4s3)OCCC5S(C)(=O)=O)cc(Cl)n2)c1F` (stereo not shown) [Example 41, N-(2-chloro-6-(2-fluoro-3-methylphenoxy)pyridin-4-yl)-4-(methylsulfonyl)-3,4-dihydro-2H-thieno[3,2-g]chromene-7-carboxamide], the IC50 in assay [1] came to 0.011 µM; in assay [3] (Homo sapiens), 0.021 µM; in assay [4] (Homo sapiens) it was 0.012 µM.
